From article PMC4409056, “A Maltose-Binding Protein Fusion Construct Yields a Robust Crystallography Platform for MCL1” (PLoS ONE, 2015)

Experiments:
MCL1 173–329 = biological target: T1, MCL1 173–329 (Homo sapiens, UniProt Q07820); assay: isothermal titration calorimetry; type: binding
T1 construct: residues 173-329 (no N-terminal region, no transmembrane domain), E. coli, 6xHis-Smt3 tag cleaved by Ulp-1, wild type

MBP-MCL1 = biological target: T2, MBP-MCL1 (Homo sapiens, UniProt Q07820, K194A/K197A/R201A); assay: isothermal titration calorimetry; crystal structure […] Å (soak); type: binding
T2 construct: 6xHis-TEV tag cleaved, MBP kept; E. coli

MCL1 173–329 (human) = assay: ITC; hNoxa (20–38) (400 μM or 300 μM) titrated into 25 μM MCL1 173–329 or MBP-MCL1; autoITC200, 25°C, 25 mM Hepes pH 7.4, 100 mM NaCl, 0.1 mM TCEP, 4% DMSO; n ≥ 3, averaged KD
[1] = biological target: T3, MBP-MCL1 (MBP, two-residue GS linker, MCL1 173–321 K194A/K197A/R201A) (human, UniProt Q07820 173-321, K194A | K197A | R201A); assay: as above; conditions: both partners purified
T3 construct: two-residue linker between MBP and MCL1; MCL1, human, residues 173-321 with three alanine mutations in the disordered loop; only the 6XHis-Tev part was removed with TEV protease; Six of the seven deposited PDB entries hold this construct and one holds MCL1 173–321 without MBP; also called MBP-MCL1 fusion construct; MBP-MCL1 fusion protein; source: E. coli (Top 10 or BL21 (DE3)), purified (Ni2+ …)
T3 sequence (Q07820 other isoform, or with tags, fused parts or gaps with the stated changes): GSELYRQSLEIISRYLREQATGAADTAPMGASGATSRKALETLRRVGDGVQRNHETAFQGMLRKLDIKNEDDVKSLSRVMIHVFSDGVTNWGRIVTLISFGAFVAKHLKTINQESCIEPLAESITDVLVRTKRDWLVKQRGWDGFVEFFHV

T2 sequence (Q07820 173-321 K194A/K197A/R201A): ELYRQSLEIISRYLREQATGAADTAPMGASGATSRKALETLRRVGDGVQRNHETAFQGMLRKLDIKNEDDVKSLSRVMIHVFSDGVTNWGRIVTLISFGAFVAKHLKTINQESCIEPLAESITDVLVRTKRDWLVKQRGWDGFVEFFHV
Sequence of MCL1 173–329 (human) (Q07820 173-329): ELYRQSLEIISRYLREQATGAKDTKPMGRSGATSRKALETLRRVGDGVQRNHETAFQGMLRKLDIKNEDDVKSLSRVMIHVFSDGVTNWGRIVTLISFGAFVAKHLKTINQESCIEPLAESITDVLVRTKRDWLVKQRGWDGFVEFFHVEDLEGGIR
T1 sequence (Q07820 173-329): as above

Kd (MCL1 173–329) [µM] | Kd (MBP-MCL1) [µM] | Kd (MCL1 173–329 (human)) [µM] | Kd [1] [µM] | Molecule
97 | 93 | – | – | O=C(O)c1sc2cc(F)ccc2c1Cl [compound 4, fragment 4]
– | – | 0.16 | 0.19 | ELEVECATQLRRFGDKLNF (peptide, UniProt Q13794 20-38, looked up, Noxa, human, BH3 peptide, residues 20-38; also called BH3 peptide Noxa (20–38)) [hNoxa (20–38)]
